Results: US20070093455A1, “10-substituted tetracyclines and methods of use thereof” (priority 2005, published 2007)
Converted amounts (≈) assume the structure as drawn.

What was measured:
P. granulosum (PBS 1098) = assay: In vitro MIC assay, P. granulosum (PBS 1098); assay type: cell-based
P. acnes (ATCC 6919) = assay: In vitro MIC assay, P. acnes (ATCC 6919); assay type: cell-based; details: Cutibacterium acnes, ATCC6919; Brucella agar with laked sheep blood, 48 hours anaerobic, 35° C.
P. acnes (PBS 1074) = assay: In vitro MIC assay, P. acnes (PBS 1074); assay type: cell-based; details: Cutibacterium acnes; Brucella agar with laked sheep blood, 48 hours anaerobic, 35° C.
[1] = test system: H. influenza (ATCC 49247); assay: In vitro MIC assay, H. influenza (ATCC 49247); assay type: cell-based; details: read-out: MIC H. influenza (ATCC 49247)
E. coli (ATCC 25922) = assay: In vitro MIC assay, E. coli (ATCC 25922); assay type: cell-based; details: Escherichia coli, ATCC25922; broth microdilution, 35° C., 18-24 hours
COS-1 or CHO cell = assay: Mammalian cell cytotoxicity assay (Resazurin; Alamar Blue); assay type: cell-based; details: COS-1 or CHO cells, 24 hour incubation
Procedure: To predict the in vivo risks associated with the compounds of the invention, a soluble, non-toxic redox dye (“Resazurin”; Alamar Blue) was used to assess a compound's effect on cellular metabolism. COS-1 or CHO cell suspensions were prepared, seeded into 96-well black-walled microtiter plates, and incubated overnight at 37° C., in 5% CO2 and approximately 95% humidity. On the next day, serial dilutions of test drug were prepared and transferred to cell plates. Following a 24 hour incubation period, the media/drug was aspirated, and 50 μL of resazurin was added. After a 2 hour incubation, fluorescence measurements were taken (excitation […], emission 590 nm) and toxic effects in treated versus control cells were compared based on the degree of fluorescence in each well.

S. aureus RN450 = assay: In vitro MIC assay, S. aureus RN450; assay type: cell-based; details: Staphylococcus aureus, broth microdilution, 35° C., 18-24 hours
[2] = test system: B. theraiotaomicron (ATCC 29741); assay: In vitro MIC assay, B. theraiotaomicron (ATCC 29741); assay type: cell-based
P. granulosum (PBS 1048) = assay: In vitro MIC assay, P. granulosum (PBS 1048); assay type: cell-based
B. fragilis (ATCC 25285) = assay: In vitro MIC assay, B. fragilis (ATCC 25285); assay type: cell-based; details: Bacteroides fragilis, ATCC25285
P. acnes (PBS 994) = assay: In vitro MIC assay, P. acnes (PBS 994); assay type: cell-based; details: Cutibacterium acnes; Brucella agar with laked sheep blood, 48 hours anaerobic, 35° C.
P. acnes (PBS 1080) = assay: In vitro MIC assay, P. acnes (PBS 1080); assay type: cell-based; details: Cutibacterium acnes; Brucella agar with laked sheep blood, 48 hours anaerobic, 35° C.
[3] = test system: Mouse 3T3 fibroblast cells; assay: Phototoxicity assay (neutral red); assay type: cell-based; details: 3T3 cells
Procedure: Mouse 3T3 fibroblast cells were harvested and plated at a concentration of 1×10^5 cells/mL. Drug dilutions were made in HBSS and added to the plates. Duplicate plates were then incubated in the dark (for controls), or under UV light (meter reading of 1.6-1.8 mW/cm^2) for 50 minutes. Cells were then washed with HBSS, fresh medium was added, and plates were then incubated overnight. The following day, neutral red was added as an indicator of cell viability and plates were incubated for an additional 3 hours. Cells were then washed with HBSS and a solution of 50% EtOH, 10% glacial acetic acid is added. After a 20 minute incubation period, plates absorbance at 535 nm were read using a Wallac Victor 5 spectrophotometer. The phototoxicity in light-treated and control cultures was then compared.

S. aureus RN4250 = assay: In vitro MIC assay, S. aureus RN4250; assay type: cell-based; details: Staphylococcus aureus, broth microdilution, 35° C., 18-24 hours
P. acnes (ATCC 1077) = assay: In vitro MIC assay, P. acnes (ATCC 1077); assay type: cell-based; details: Cutibacterium acnes, ATCC1077; Brucella agar with laked sheep blood, 48 hours anaerobic, 35° C.
P. acnes (PBS 1073) = assay: In vitro MIC assay, P. acnes (PBS 1073); assay type: cell-based; details: Cutibacterium acnes; Brucella agar with laked sheep blood, 48 hours anaerobic, 35° C.
E. coli translation = assay: In vitro translation assay for inhibition of bacterial protein synthesis (E. coli S30 Extract System, luciferase); assay type: biochemical; details: 37° C., 1 hour, luciferase luminescence
Procedure: As a further measure of antibacterial activity, an E. coli S30 Extract System was used to quantitate inhibition of E. coli translation by tetracycline derivatives. This system contained all required components for translation, including a nucleic acid template which, when translated, produces functional luciferase. The reactions were set up with E. coli S30 extract, amino acids, DNA template and selected tetracycline compounds at concentrations of 100, 50, 25, 10, 5, and 1 μg/ml. The reactions were incubated at 37° C. for 1 hour and analyzed by adding the reaction mix to Steady-Glo Luciferase Assay substrate (Promega, Madison Wis.). Luminescence was measured with the Wallac Victor5 plate reader and inhibition is calculated by comparing luciferase activity in experimental reactions versus controls.

E. coli MG 1655 DWAK = assay: In vitro MIC assay, E. coli MG 1655 DWAK; assay type: cell-based; details: Escherichia coli, MG1655DWAK; broth microdilution, 35° C., 18-24 hours
Procedure: The following assay was used to determine the efficacy of tetracycline compounds against common bacteria. Serial dilutions of compounds were prepared in microdilution plates using a Tecan robotic workstation. Mueller Hinton broth cultures of gram negative and gram positive strains were grown or adjusted to match the turbidity of a 0.5 McFarland standard. 1:200 dilutions were made in appropriate broth (cation supplemented Mueller Hinton broth or Haemophilus test medium) to allow a final inoculum of 1×10^5 cfu. Lysed horse blood was used to supplement broth for testing S. pneumoniae. The plates were incubated at 35° C. in ambient air for 18-24 hours, read spectrophotometrically, and checked manually for evidence of bacterial growth. Serial dilutions of compounds were also added to Brucella agar supplemented with laked sheep blood for P. acnes tests. A standard inoculum was transferred to the plate using a stainless steel replicator. After 48 hours of anaerobic incubation at 35° C. plates were examined. The MIC was defined as the lowest concentration of the tetracycline compound that inhibits growth. Table 3 gives the MIC (μg/mL) of selected substituted tetracycline compounds against a variety of gram positive and gram negative bacteria.

S. pneumoniae 157E = assay: In vitro MIC assay, S. pneumoniae 157E; assay type: cell-based; details: Streptococcus pneumoniae, broth supplemented with lysed horse blood, 35° C., 18-24 hours
[4] = test system: carrageenan induced paw edema; assay: Rat model of carrageenan induced paw edema; assay type: in vivo; details: 3 hours after carrageenan injection
Procedure: Carrageenan-induced paw edema represents a commonly used experimental model to assess the anti-inflammatory properties of agents. In this example, male Sprague-Dawley rats (Charles River, Mass.) weighing 175-250 grams were used. Test compounds were administered intraperitoneally 5 minutes or orally 15 minutes before a subplantar injection of carrageenan (5 mg/1 ml) in the rat right hind paw. The paw volume (ml) was monitored with a plethysmometer (Water Plethysmometer) at time of carrageenan injection (baseline) and 3 hours after carrageenan injection. […] Both results were statistically significant with a p<0.1 level by Kruskal-Wallis One Way ANOVA, ChiSquare. There were approximately four rats per group.

P. aeruginosa K1033 = assay: In vitro MIC assay, P. aeruginosa K1033; assay type: cell-based; details: Pseudomonas aeruginosa, broth microdilution, 35° C., 18-24 hours
P. acnes (ATCC 11827) = assay: In vitro MIC assay, P. acnes (ATCC 11827); assay type: cell-based; details: Cutibacterium acnes, ATCC11827; Brucella agar with laked sheep blood, 48 hours anaerobic, 35° C.
S. aureus MRSA5 = assay: In vitro MIC assay, S. aureus MRSA5; assay type: cell-based; details: Staphylococcus aureus, broth microdilution, 35° C., 18-24 hours

Structure (SMILES)	MIC (P. acnes (ATCC 6919))	MIC (P. acnes (PBS 1074))	MIC [1]	MIC (E. coli (ATCC 25922))	cytotoxicity at 75 μg/mL (COS-1 or CHO cell)	MIC (S. aureus RN450)	MIC [2]	MIC (B. fragilis (ATCC 25285))	phototoxicity at 150 μM, incubated in the dark [3]	MIC (S. aureus RN4250)	MIC (P. acnes (ATCC 1077))	MIC (P. acnes (PBS 1073))	MIC (E. coli MG 1655 DWAK)	MIC (S. pneumoniae 157E)	MIC (P. aeruginosa K1033)	MIC (P. acnes (ATCC 11827))	MIC (S. aureus MRSA5)	other results
CN(C)c1cccc2c1CC1CC3[C@H](N(C)C)C(O)=C(C(N)=O)C(=O)[C@@]3(O)C(O)=C1C2=O (stereo partly drawn) [Compound A]	0 to 8 µg/mL	9 to 27 µg/mL (≈ 20.4 to 61.2 µM)	22 to 43 µg/mL (≈ 49.8 to 97.4 µM)	22 to 43 µg/mL (≈ 49.8 to 97.4 µM)	minimal cytotoxicity	0 to 21 µg/mL	9 to 27 µg/mL (≈ 20.4 to 61.2 µM)	0 to 8 µg/mL	not to be appreciably phototoxic	0 to 21 µg/mL	9 to 27 µg/mL (≈ 20.4 to 61.2 µM)	9 to 27 µg/mL (≈ 20.4 to 61.2 µM)	0 to 21 µg/mL	0 to 21 µg/mL	0 to 21 µg/mL	0 to 8 µg/mL	44 to 64 µg/mL (≈ 99.7 to 145 µM)	MIC (P. granulosum (PBS 1098)): 9 to 27 µg/mL (≈ 20.4 to 61.2 µM); MIC (P. granulosum (PBS 1048)): 9 to 27 µg/mL (≈ 20.4 to 61.2 µM); MIC (P. acnes (PBS 994)): 9 to 27 µg/mL (≈ 20.4 to 61.2 µM); MIC (P. acnes (PBS 1080)): 9 to 27 µg/mL (≈ 20.4 to 61.2 µM); IC20 (E. coli translation): > 100 µM; IC50 (E. coli translation): > 100 µM; decrease in paw inflammation relative to the untreated control ([4]; 75 mg/kg IP): 60%
CC(=O)c1cccc2c1CC1CC3[C@@H](N(C)C)C(O)=C(C(N)=O)C(=O)[C@@]3(O)C(O)=C1C2=O (stereo partly drawn) [I]	0 to 8 µg/mL	28 to 32 µg/mL (≈ 63.6 to 72.7 µM)	0 to 21 µg/mL	22 to 43 µg/mL (≈ 49.9 to 97.6 µM)	minimal cytotoxicity	0 to 21 µg/mL	28 to 32 µg/mL (≈ 63.6 to 72.7 µM)	0 to 8 µg/mL	not to be appreciably phototoxic	0 to 21 µg/mL	28 to 32 µg/mL (≈ 63.6 to 72.7 µM)	28 to 32 µg/mL (≈ 63.6 to 72.7 µM)	0 to 21 µg/mL	0 to 21 µg/mL	0 to 21 µg/mL	0 to 8 µg/mL	0 to 21 µg/mL	phototoxicity at 30 μM, incubated in the UV light ([3]; UV light 1.6-1.8 mW/cm^2, 30 μM): minimally phototoxic
CC(=O)c1cccc2c1CC1CC3[C@H](N(C)C)C(O)=C(C(N)=O)C(=O)[C@@]3(O)C(O)=C1C2=O (stereo partly drawn) [J]	0 to 8 µg/mL	28 to 32 µg/mL (≈ 63.6 to 72.7 µM)	0 to 21 µg/mL	0 to 21 µg/mL	minimal cytotoxicity	0 to 21 µg/mL	28 to 32 µg/mL (≈ 63.6 to 72.7 µM)	0 to 8 µg/mL	not to be appreciably phototoxic	0 to 21 µg/mL	28 to 32 µg/mL (≈ 63.6 to 72.7 µM)	28 to 32 µg/mL (≈ 63.6 to 72.7 µM)	0 to 21 µg/mL	0 to 21 µg/mL	0 to 21 µg/mL	0 to 8 µg/mL	0 to 21 µg/mL	–
CN(C)c1ccc(O)c2c1C[C@H]1C[C@H]3[C@H](N(C)C)C(O)=C(C(N)=O)C(=O)[C@@]3(O)C(O)=C1C2=O [Minocycline, reference compound]	–	–	–	–	–	–	–	–	–	–	–	–	–	–	–	–	–	reduced inflammation relative to the untreated control ([4]; 50 mg/kg IP, positive control): 70%
